Laboratory results reported in patent US6447794B2, “Stomach-action molluscicides” (priority 1996, dated 2002).

Key:
Deroceras reticulatum [1] = details: on wet soil after 10 days; cited from earlier work
Helix apersa = test: preliminary trials, contact poison on a smooth glass surface; type: in vivo, Helix aspersa
Description: (§1) Subsequent trials compared the effective toxicity of methiocarb, metaldehyde bait pellets and ferric EDTA pellets and ferric EDTA bait powder to Helix aspersa and the effective toxicity of ferric EDTA to Deroceras reticulatum. Limited trials were carried out on Theba pisana (the white Italian snail), Cernuella virgata (the vineyard snail), Limax maximus and Cochlicella spp.

Deroceras reticulatum [2] = test: as above; type: in vivo
Description: as §1

| SMILES | toxicity relative to Iron(III) EDTA (Deroceras reticulatum [1]) | toxicity as a contact poison (Helix apersa) | toxicity as a contact poison (Deroceras reticulatum [2]) |
| --- | --- | --- | --- |
| CC(=O)/C=C(/C)[O-].CC(=O)/C=C(/C)[O-].CC(=O)/C=C(/C)[O-].[Fe+3] [Iron(III) 2,4-pentanedionate] | about twice to three times as toxic |  |  |
| O=C([O-])CN(CCN(CC(=O)[O-])CC(=O)[O-])CC(=O)[O-].[Fe+3].[Na+] [ferric EDTA, Ferric sodium EDTA] |  | toxic | toxic |
